Measured values from patent publication US20250388553A1 (Incyte Corporation, priority 2018, published 2025).
Structures can show the parent of a compound that is named as a salt.

Key:
[1] = target: PI3Kγ (p110γ) Recombinant Human Protein (Homo sapiens (Human), UniProt P48736); experiment: PI3K-γ scintillation proximity assay; assay type: biochemical; details: Table A1; scintillation proximity assay, recombinant human p110γ
Text: Example B. PI3K-γ Scintillation Proximity Assay
(§1) Materials: [γ-^33P]ATP (10 mCi/mL) and Wheat Germ Agglutinin (WGA) YSi SPA Scintillation Beads was purchased from Perkin Elmer (Waltham, MA). Lipid kinase substrate, D-myo-Phosphatidylinositol 4,5-bisphosphate (PtdIns(4,5)P2)D (+)-sn-1,2-di-O-octanoylglyceryl, 3-O-phospho linked (PIP2), CAS 204858-53-7, was purchased from Echelon Biosciences (Salt Lake City, UT). PI3Kγ (p110γ) Recombinant Human Protein was purchased from Life technology (Grand Island, NY). ATP, MgCl2, DTT, EDTA, MOPS and CHAPS were purchased from Sigma Aldrich (St. Louis, MO).
(§2) The kinase reaction was conducted in polystyrene 384-well Greiner Bio-one white plate from Thermo Fisher Scientific in a final volume of 25 L. Inhibitors were first diluted serially in DMSO and added to the plate wells before the addition of other reaction components. The final concentration of DMSO in the assay was 2%. The PI3Kγ assay was carried out at room temperature in 20 mM MOPS, pH 6.7, 10 mM MgCl2, 5 mM DTT and CHAPS 0.03%. Reactions were initiated by the addition of ATP, the final reaction mixture consisted of 20 µM […], 0.5 μCi [γ-^33P]ATP, 13 nM PI3Kγ. Reactions were incubated for 120 min and terminated by the addition of 40 μL SPA beads suspended in quench buffer: 163 mM potassium phosphate pH 7.8, 20% glycerol, 25 mM EDTA. The final concentration of SPA beads is 1.0 mg/mL. After the plate sealing, plates were shaken overnight at room temperature and centrifuged at 1500 rpm for 10 min, the radioactivity of the product was determined by scintillation counting on Topcount (Perkin-Elmer). IC50 determination was performed by fitting the curve of percent of the solvent control activity versus the log of the inhibitor concentration using the GraphPad Prism 6.0 software.
(§3) The compounds of the Examples were tested in the assays described in Examples A, B and C and found to have the IC50s are shown in Tables A1, A2, A3 and A4.

[2] = target: PI3Kδ (p1106/p85a) Recombinant Human Protein (Homo sapiens (Human), UniProt O00329); experiment: PI3Kδ scintillation proximity assay; assay type: biochemical; details: scintillation proximity assay, recombinant human PI3Kδ
PI3Kδ (p1106/p85a) Recombinant Human Protein, sequence (O00329 whole entry): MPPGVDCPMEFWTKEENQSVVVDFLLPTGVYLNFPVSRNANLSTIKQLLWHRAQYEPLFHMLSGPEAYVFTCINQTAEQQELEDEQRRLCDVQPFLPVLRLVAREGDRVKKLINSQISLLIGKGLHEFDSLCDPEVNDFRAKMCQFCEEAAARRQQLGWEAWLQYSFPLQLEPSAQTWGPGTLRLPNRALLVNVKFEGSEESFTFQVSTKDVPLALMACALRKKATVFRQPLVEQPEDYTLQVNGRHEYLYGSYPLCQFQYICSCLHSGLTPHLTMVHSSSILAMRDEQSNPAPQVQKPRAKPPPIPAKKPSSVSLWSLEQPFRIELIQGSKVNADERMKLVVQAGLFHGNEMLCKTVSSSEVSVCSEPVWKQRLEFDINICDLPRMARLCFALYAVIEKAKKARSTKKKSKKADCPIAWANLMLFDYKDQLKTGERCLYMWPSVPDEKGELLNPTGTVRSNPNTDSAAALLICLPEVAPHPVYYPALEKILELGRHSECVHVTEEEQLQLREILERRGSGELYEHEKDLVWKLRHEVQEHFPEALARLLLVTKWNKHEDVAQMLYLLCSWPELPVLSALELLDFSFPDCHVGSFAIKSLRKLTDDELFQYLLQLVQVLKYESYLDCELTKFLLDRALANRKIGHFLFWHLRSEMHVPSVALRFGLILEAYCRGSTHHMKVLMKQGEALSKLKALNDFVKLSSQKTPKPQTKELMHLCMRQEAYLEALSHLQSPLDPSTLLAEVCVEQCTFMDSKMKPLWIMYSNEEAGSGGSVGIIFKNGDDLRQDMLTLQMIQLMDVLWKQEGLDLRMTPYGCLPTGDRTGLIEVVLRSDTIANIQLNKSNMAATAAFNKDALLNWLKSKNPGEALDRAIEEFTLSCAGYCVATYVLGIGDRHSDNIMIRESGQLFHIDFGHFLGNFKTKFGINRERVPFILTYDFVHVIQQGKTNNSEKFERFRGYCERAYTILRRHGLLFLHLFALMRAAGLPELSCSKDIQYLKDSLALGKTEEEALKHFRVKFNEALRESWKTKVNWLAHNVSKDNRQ
PI3Kδ (p1106/p85a) Recombinant Human Protein, sequence (P27986 whole entry partner): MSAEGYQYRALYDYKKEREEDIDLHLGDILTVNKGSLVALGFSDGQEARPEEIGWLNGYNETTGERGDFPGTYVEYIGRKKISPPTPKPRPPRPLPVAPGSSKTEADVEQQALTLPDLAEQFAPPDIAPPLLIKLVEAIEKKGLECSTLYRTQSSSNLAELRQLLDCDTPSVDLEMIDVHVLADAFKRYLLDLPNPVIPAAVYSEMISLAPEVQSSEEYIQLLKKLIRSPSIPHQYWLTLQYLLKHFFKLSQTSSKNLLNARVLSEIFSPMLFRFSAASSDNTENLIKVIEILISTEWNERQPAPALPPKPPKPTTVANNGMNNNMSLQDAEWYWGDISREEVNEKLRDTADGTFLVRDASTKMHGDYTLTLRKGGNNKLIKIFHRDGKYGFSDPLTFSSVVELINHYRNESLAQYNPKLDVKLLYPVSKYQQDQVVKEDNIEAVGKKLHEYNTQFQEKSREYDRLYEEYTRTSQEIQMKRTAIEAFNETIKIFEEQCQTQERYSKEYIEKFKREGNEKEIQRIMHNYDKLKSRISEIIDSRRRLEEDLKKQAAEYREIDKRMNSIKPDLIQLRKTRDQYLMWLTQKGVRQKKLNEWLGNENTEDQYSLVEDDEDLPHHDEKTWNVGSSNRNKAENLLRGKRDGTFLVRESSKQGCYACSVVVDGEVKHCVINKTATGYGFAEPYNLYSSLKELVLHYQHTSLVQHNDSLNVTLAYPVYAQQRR
Text: Example C. PI3Kδ Scintillation Proximity Assay
as §1, with “PI3Kδ (p1106/p85a)” for “PI3Kγ (p110γ)”, “Eurofins (St Charles, MO).” for “Life technology (Grand Island, NY).”
as §2, with “25 μL.” for “25 L.”, “The PI3Kδ” for “The PI3Kγ”, “[γ-^33P]ATP, 3.4” for “[γ-^33P]ATP, 13”, “nM PI3Kδ.” for “nM PI3Kγ.”, “Topcount (PerkinElmer).” for “Topcount (Perkin-Elmer).”
as §3

PI3Kγ (p110γ) Recombinant Human Protein, sequence (P48736 whole entry): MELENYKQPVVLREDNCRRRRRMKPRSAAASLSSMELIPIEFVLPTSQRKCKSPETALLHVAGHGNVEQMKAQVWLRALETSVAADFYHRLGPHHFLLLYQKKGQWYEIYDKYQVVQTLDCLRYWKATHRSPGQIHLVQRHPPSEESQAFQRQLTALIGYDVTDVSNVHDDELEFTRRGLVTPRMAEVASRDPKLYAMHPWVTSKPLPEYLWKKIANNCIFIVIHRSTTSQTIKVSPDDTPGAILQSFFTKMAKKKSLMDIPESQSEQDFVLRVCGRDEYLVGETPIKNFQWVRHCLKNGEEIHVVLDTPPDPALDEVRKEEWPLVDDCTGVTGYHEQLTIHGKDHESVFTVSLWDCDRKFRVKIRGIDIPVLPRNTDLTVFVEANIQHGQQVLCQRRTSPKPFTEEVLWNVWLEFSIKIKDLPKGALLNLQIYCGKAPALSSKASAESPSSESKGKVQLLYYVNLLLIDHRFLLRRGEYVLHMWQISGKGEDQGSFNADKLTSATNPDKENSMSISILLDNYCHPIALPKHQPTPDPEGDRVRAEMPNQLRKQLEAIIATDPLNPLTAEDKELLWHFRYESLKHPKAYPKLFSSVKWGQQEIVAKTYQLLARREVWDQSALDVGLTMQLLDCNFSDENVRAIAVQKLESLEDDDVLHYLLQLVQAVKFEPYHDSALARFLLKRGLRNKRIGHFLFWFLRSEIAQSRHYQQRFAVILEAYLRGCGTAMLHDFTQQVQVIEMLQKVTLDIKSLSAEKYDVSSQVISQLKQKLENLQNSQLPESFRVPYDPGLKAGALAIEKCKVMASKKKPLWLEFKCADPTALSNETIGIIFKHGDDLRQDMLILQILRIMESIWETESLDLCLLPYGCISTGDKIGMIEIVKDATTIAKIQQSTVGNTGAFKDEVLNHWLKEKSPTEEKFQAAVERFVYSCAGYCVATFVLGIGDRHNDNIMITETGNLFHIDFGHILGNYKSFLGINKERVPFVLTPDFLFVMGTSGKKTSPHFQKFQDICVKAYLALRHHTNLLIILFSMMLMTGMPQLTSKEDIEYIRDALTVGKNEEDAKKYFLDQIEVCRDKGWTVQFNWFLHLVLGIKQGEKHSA

| IC50 [1] | IC50 ([2]; Table A1) | IC50 ([2]; Table A4) | SMILES |
| --- | --- | --- | --- |
| < 100 nM | < 100 nM | – | Cc1ccc(C(O)(C(N)=O)C(F)(F)F)cc1-c1cnc(N)c(C(=O)NC2CC3CCC2O3)n1 (single isomer, unassigned) [Example 30, 3-amino-6-(5-(3-amino-1,1,1-trifluoro-2-hydroxy-3-oxopropan-2-yl)-2-methylphenyl)-N-(7-oxabicyclo[2.2.1]heptan-2-yl)pyrazine-2-carboxamide] |
| < 100 nM | < 100 nM | – | Cc1ccc(C(O)(C(N)=O)C(F)(F)F)cc1-c1cnc(N)c(C(=O)NCC(O)C(F)(F)F)n1 (single isomer, unassigned) [Example 43B, 3-amino-6-(5-(3-amino-1,1,1-trifluoro-2-hydroxy-3-oxopropan-2-yl)-2-methylphenyl)-N-(3,3,3-trifluoro-2-hydroxypropyl)pyrazine-2-carboxamide] |
| – | – | 100 to 500 nM | Cc1ccc(C(O)(C(N)=O)C(F)(F)F)cc1-c1cnc(N)c(C2CC(C(=O)NC(C)C)C2)n1 (single isomer, unassigned) [Example 111, 3-(3-Amino-6-(5-(3-amino-1,1,1-trifluoro-2-hydroxy-3-oxopropan-2-yl)-2-methylphenyl)pyrazin-2-yl)-N-isopropylcyclobutane-1-carboxamide] |
| < 100 nM | < 100 nM | – | Cc1ccc(C(O)(C(N)=O)C(F)(F)F)cc1-c1cnc(N)c(C(=O)NCC(C)(C)O)n1 (stereo not shown) [Example 1, 3-Amino-6-(5-(3-amino-1,1,1-trifluoro-2-hydroxy-3-oxopropan-2-yl)-2-methylphenyl)-N-(2-hydroxy-2-methylpropyl)pyrazine-2-carboxamide] |
| < 100 nM | < 100 nM | – | Cc1ccc(C(O)(C(N)=O)C(F)(F)F)cc1-c1cnc(N)c(C(=O)NC2CCOCC2)n1 (stereo not shown) [Example 2, 3-amino-6-(5-(3-amino-1,1,1-trifluoro-2-hydroxy-3-oxopropan-2-yl)-2-methylphenyl)-N-(tetrahydro-2H-pyran-4-yl)pyrazine-2-carboxamide trifluoroacetate] |
| < 100 nM | < 100 nM | – | Cc1ccc(C(O)(C(N)=O)C(F)(F)F)cc1-c1cnc(N)c(C(=O)NCC2(C#N)CC2)n1 (stereo not shown) [Example 4, 3-amino-6-(5-(3-amino-1,1,1-trifluoro-2-hydroxy-3-oxopropan-2-yl)-2-methylphenyl)-N-((1-cyanocyclopropyl)methyl)pyrazine-2-carboxamide trifluoroacetate] |
| < 100 nM | < 100 nM | – | Cc1ccc(C(O)(C(N)=O)C(F)(F)F)cc1-c1cnc(N)c(C(=O)NC(C)C)n1 (stereo not shown) [Example 5, 3-Amino-6-(5-(3-amino-1,1,1-trifluoro-2-hydroxy-3-oxopropan-2-yl)-2-methylphenyl)-N-isopropylpyrazine-2-carboxamide trifluoroacetate] |
| < 100 nM | < 100 nM | – | Cc1ccc(C(O)(C(N)=O)C(F)(F)F)cc1-c1cnc(N)c(C(=O)NC2CCC(F)(F)CC2)n1 (stereo not shown) [Example 6, 3-amino-6-(5-(3-amino-1,1,1-trifluoro-2-hydroxy-3-oxopropan-2-yl)-2-methylphenyl)-N-(4,4-difluorocyclohexyl)pyrazine-2-carboxamide trifluoroacetate] |
| < 100 nM | < 100 nM | – | CCNC(=O)c1nc(-c2cc(C(O)(C(N)=O)C(F)(F)F)ccc2C)cnc1N (stereo not shown) [Example 7, 3-Amino-6-(5-(3-amino-1,1,1-trifluoro-2-hydroxy-3-oxopropan-2-yl)-2-methylphenyl)-N-ethylpyrazine-2-carboxamide trifluoroacetate] |
| < 100 nM | < 100 nM | – | Cc1ccc(C(O)(C(N)=O)C(F)(F)F)cc1-c1cnc(N)c(C(=O)N[C@@H](C)CC#N)n1 (stereo partly drawn) [Example 8, 3-amino-6-(5-(3-amino-1,1,1-trifluoro-2-hydroxy-3-oxopropan-2-yl)-2-methylphenyl)-N-((S)-1-cyanopropan-2-yl)pyrazine-2-carboxamide trifluoroacetate] |
| < 100 nM | < 100 nM | – | Cc1ccc(C(O)(C(N)=O)C(F)(F)F)cc1-c1cnc(N)c(C(=O)N[C@@H]2CCCOC2)n1 (stereo partly drawn) [Example 9, 3-amino-6-(5-(3-amino-1,1,1-trifluoro-2-hydroxy-3-oxopropan-2-yl)-2-methylphenyl)-N-((R)-tetrahydro-2H-pyran-3-yl)pyrazine-2-carboxamide trifluoroacetate] |
| < 100 nM | < 100 nM | – | Cc1ccc(C(O)(C(N)=O)C(F)(F)F)cc1-c1cnc(N)c(C(=O)N[C@H]2CCCOC2)n1 (stereo partly drawn) [Example 10, 3-amino-6-(5-(3-amino-1,1,1-trifluoro-2-hydroxy-3-oxopropan-2-yl)-2-methylphenyl)-N-((S)-tetrahydro-2H-pyran-3-yl)pyrazine-2-carboxamide trifluoroacetate] |
| < 100 nM | < 100 nM | – | Cc1ccc(C(O)(C(N)=O)C(F)(F)F)cc1-c1cnc(N)c(C(=O)N[C@H]2CCOC2)n1 (stereo partly drawn) [Example 11, 3-amino-6-(5-(3-amino-1,1,1-trifluoro-2-hydroxy-3-oxopropan-2-yl)-2-methylphenyl)-N-((S)-tetrahydrofuran-3-yl)pyrazine-2-carboxamide trifluoroacetate] |
| < 100 nM | < 100 nM | – | Cc1ccc(C(O)(C(N)=O)C(F)(F)F)cc1-c1cnc(N)c(C(=O)N[C@@H](C)CO)n1 (stereo partly drawn) [Example 12, 3-amino-6-(5-(3-amino-1,1,1-trifluoro-2-hydroxy-3-oxopropan-2-yl)-2-methylphenyl)-N-((S)-1-hydroxypropan-2-yl)pyrazine-2-carboxamide] |
| < 100 nM | < 100 nM | – | Cc1ccc(C(O)(C(N)=O)C(F)(F)F)cc1-c1cnc(N)c(C(=O)NC(C)(C)CO)n1 (stereo not shown) [Example 13, 3-Amino-6-(5-(3-amino-1,1,1-trifluoro-2-hydroxy-3-oxopropan-2-yl)-2-methylphenyl)-N-(1-hydroxy-2-methylpropan-2-yl)pyrazine-2-carboxamide] |
| < 100 nM | < 100 nM | – | Cc1ccc(C(O)(C(N)=O)C(F)(F)F)cc1-c1cnc(N)c(C(=O)NCCC#N)n1 (stereo not shown) [Example 14, 3-amino-6-(5-(3-amino-1,1,1-trifluoro-2-hydroxy-3-oxopropan-2-yl)-2-methylphenyl)-N-(2-cyanoethyl)pyrazine-2-carboxamide trifluoroacetate] |
| < 100 nM | < 100 nM | – | Cc1ccc(C(O)(C(N)=O)C(F)(F)F)cc1-c1cnc(N)c(C(=O)NCC(C)(C)C#N)n1 (stereo not shown) [Example 15, 3-amino-6-(5-(3-amino-1,1,1-trifluoro-2-hydroxy-3-oxopropan-2-yl)-2-methylphenyl)-N-(2-cyano-2-methylpropyl)pyrazine-2-carboxamide trifluoroacetate] |
| < 100 nM | < 100 nM | – | Cc1ccc(C(O)(C(N)=O)C(F)(F)F)cc1-c1cnc(N)c(C(=O)NCC2(C#N)CCC2)n1 (stereo not shown) [Example 16, 3-amino-6-(5-(3-amino-1,1,1-trifluoro-2-hydroxy-3-oxopropan-2-yl)-2-methylphenyl)-N-((1-cyanocyclobutyl)methyl)pyrazine-2-carboxamide trifluoroacetate] |
| < 100 nM | < 100 nM | – | CC[C@@H](CC#N)NC(=O)c1nc(-c2cc(C(O)(C(N)=O)C(F)(F)F)ccc2C)cnc1N (stereo partly drawn) [Example 20, 3-amino-6-(5-(3-amino-1,1,1-trifluoro-2-hydroxy-3-oxopropan-2-yl)-2-methylphenyl)-N-((S)-1-cyanobutan-2-yl)pyrazine-2-carboxamide trifluoroacetate] |
